Laboratory results taken from BigSolDB 2.1.

CCOC(=O)C1(c2ccccc2)CCN(CCC(C#N)(c2ccccc2)c2ccccc2)CC1
solubility (mole fraction)
Conditions | in acetone | in acetonitrile | in ethanol | in isopropanol | in methanol | in water
293.15 K | 0.00426 | 0.00427 | 0.00169 | 0.000258 | 0.00598 | 8.6e-06
298.15 K | 0.00479 | 0.005 | 0.00198 | 0.000442 | 0.00791 | 1.19e-05
303.15 K | 0.00559 | 0.00601 | 0.0023 | 0.000627 | 0.0105 | 1.45e-05
308.15 K | 0.00608 | 0.00727 | 0.0027 | 0.000859 | 0.0123 | 1.96e-05
313.15 K | 0.00664 | 0.00919 | 0.00325 | 0.00108 | 0.0144 | 2.7e-05
318.15 K | 0.00776 | 0.0124 | 0.00432 | 0.00156 | 0.0184 | 3.28e-05
